What was measured:
[1] = Osmolality determination (FISKE osmometer); type: physicochemical; conditions: solutions containing 28% iodine; methylglucamine salts; extrapolation from successive dilutions
Experimental: Osmolality is determined by extrapolation of the values obtained on successive dilutions of solutions containing 28% or 38% iodine.
Osmolality readings are made with a FISKE Model 230/D/330 D osmometer. This apparatus indicates this measurement as milliosmoles per kg of solution. Its operation is based on the principles of cryoscopy. The determinations were made with solutions containing 28% iodine.

[2] = test system: mice; experiment: Acute toxicity determination, intravenous toxicity in mice; type: in vivo, mice (Swiss origin, IOPS mice of OFI strain); conditions: 24 hours
Experimental: Intravenous toxicity determination was effected in Swiss origin, IOPS mice of OFI strain.
Each dosage level was injected to a lot of 10 mice comprising 5 male and 5 female mice.
Injections were made manually, in the caudal vein, at a rate of 2 ml/minute.
Death rate during the 24 hours after injection was recorded.

[3] = test system: femoral artery; experiment: Effect on the femoral rate of flow (peripheral vasodilatation); type: in vivo, mongrels
Experimental: This test was carried out in Nembutal-anesthetized male or female 7-12 mongrels.
Nembutal was used at a dosage of 30 mg/kg, with Vetranquil pre-medication, (overall intravenous injection of 2.5 mg), respiration was spontaneous.
Rate of flow variations were recorded at the level of the right or left fermoral artery, by means of a Statham electromagnetic sensor.
The injections were made in a collateral of the fermoral artery, downstream of the sensor, by means of a catheter mounted by the retrograde route, so as not to perturb the blood flow.
The injections were made under a constant volume of 1.5 ml administered within 3-5 seconds.
The same volume of an iostonic sodium chloride solution was also injected.

[4] = Biliary clearance test in cats; type: in vivo; parameters: scale not given here
Experimental: This test was conducted in male or female adult cats weighing 3-4 kg.
The test material was injected intravenously, at a dosage of 0.10 g/kg iodine at the level of the internal saphenous vein. Clearance of the material was monitored by X-ray control.
X-ray pictures visualizing the gall bladder and the bladder were taken at the following times: 30 minutes, 1 hour, 2 hours, 3 hours, 4 hours, 5 hours, 6 hours.

[5] = 1.5 ml into collateral of femoral artery, 28% I, Mgl salt
[6] = i.v., 0.10 g I/kg, 28% I, Mgl salt

SMILES	Osmolality [1]	Acute toxicity in mice, i.v. ([2]; 28% I, Mgl salt)	Peripheral vasodilatation, femoral rate of flow [3, 5]	Biliary clearance in cat, i.v. [4, 6]	other results
CNC(=O)c1c(I)c(NC(=O)CCCNC(=O)c2c(I)cc(I)c(N(C)C(C)=O)c2I)c(I)c(C(=O)O)c1I [Compound 11, 2,4,6-triiodo-3-N-methylcarbamyl-5-(2,4,6-triiodo-3-N-methylacetamido-benzoyl)-γ-aminobutyrylaminobenzoic acid]	390 mosm/kg	2.3 grams I/kg	++++	+++	
CNC(=O)c1c(I)c(NC(=O)CCCNC(=O)c2c(I)c(C(=O)NCCO)c(I)c(N(C)C(C)=O)c2I)c(I)c(C(=O)O)c1I [Compound 7, 2,4,6-triiodo-3-N-methylcarbamyl-5-(2,4,6-triiodo-3-N-hydroxyethylcarbamyl-5-N-methylacetamido-benzoyl)γ-aminobutyrylamino-benzoic acid]	525 mosm/kg	5 grams I/kg	++	0	
O=C(CCCCC(=O)Nc1c(I)cc(I)c(C(=O)O)c1I)Nc1c(I)cc(I)c(C(=O)O)c1I [e, 3,3'-Adipoyldiimino-bis(2,4,6-triiodobenzoic) acid, reference compound]		2 grams I/kg	++++		Biliary clearance in cat, i.v. ([4]; in vivo, iv): ++++
CNC(=O)c1c(I)c(NC(C)=O)c(I)c(C(=O)NCC(=O)N(C)c2c(I)cc(I)c(C(=O)O)c2I)c1I [Compound 21, 2,4,6-triiodo-3-(2,4,6-triiodo-3-N-methylcarbamyl-5-acetamido-benzoyl)glycyl-N-methylamino-benzoic acid]	580 mosm/kg				Acute toxicity in mice, i.v. ([2]; 20% I, Mgl salt): 4-5 grams I/kg; Peripheral vasodilatation, femoral rate of flow ([3]; 1.5 ml into collateral of femoral artery, 20% I, Mgl salt): ++++; Biliary clearance in cat, i.v. ([4]; i.v., 0.10 g I/kg, 20% I, Mgl salt): +++
CNC(=O)c1c(I)c(C(=O)NCCCC(=O)N(C)c2c(I)c(C(=O)O)c(I)c(C(=O)NC)c2I)c(I)c(N(C)C(C)=O)c1I [Compound 37, 2,4,6-triiodo-3-N-methylcarbamyl-5-(2,4,6-triiodo-3-N-methylcarbamyl-5-N-methylacetamido-benzoyl)-γ-aminobutyryl-N-methylamino-benzoic acid]	730 mosm/kg	< 6 grams I/kg	++++	++	
CNC(=O)c1c(I)c(NC(=O)C(O)C(O)C(O)C(O)CO)c(I)c(C(=O)NCC(=O)Nc2c(I)c(C(=O)O)c(I)c(C(=O)NCCO)c2I)c1I (stereo not shown) [Compound 36, 2,4,6-triiodo-3-hydroxyethylcarbamyl-5-(2,4,6-triiodo-3-N-methylcarbamyl-5-glyconylamino-benzoyl) glycylamino-benzoic acid]		8 grams I/kg	++	0	
CC(=O)Nc1c(I)c(NC(C)=O)c(I)c(C(=O)O)c1I [d, 2,4,6-Triiodo-3,5-bis-(acetamido)-benzoic acid, reference compound]					Acute toxicity in mice, i.v. ([2]; 38% I, mixed Mgl and Na salt): 5.7 grams I/kg; Peripheral vasodilatation, femoral rate of flow ([3]; in vivo): +++; Biliary clearance in cat, i.v. ([4]; i.v., 0.10 g I/kg, 38% I, mixed Mgl and Na salt): 0
CNC(=O)c1c(I)c(NC(=O)CNC(=O)c2c(I)cc(I)c(N(C)C(C)=O)c2I)c(I)c(C(=O)O)c1I [Compound 18, 2,4,6-triiodo-3-N-methylcarbamyl-5-(2,4,6-triiodo-3-N-methylacetamido-benzoyl-glycyl)-amino-benzoic acid]	390 mosm/kg		++++	++++	
CNC(=O)c1c(I)c(C(=O)NC(C)C(=O)Nc2c(I)cc(I)c(C(=O)O)c2I)c(I)c(N(C)C(C)=O)c1I (stereo not drawn) [Compound 23, 2,4,6-triiodo-3-(2,4,6-triiodo-3-N-methyl-carbamyl-5-N-methylacetamido-benzoyl)-α-aminoproionylamino-benzoic acid]	535 mosm/kg	3.5 grams I/kg	+++	++++	
CNC(=O)c1c(I)c(C(=O)NCCCCCC(=O)Nc2c(I)cc(I)c(C(=O)O)c2I)c(I)c(N(C)C(C)=O)c1I [Compound 10, 2,4,6-triiodo-5-(2,4,6-triiodo-3-N-methylcarbamyl-5-N-methylacetamido-benzoyl)-ε-aminocaproylamino-benzoic acid]	420 mosm/kg	1.5 grams I/kg	++++	++++	
CNC(=O)c1c(I)c(NC(=O)CNC(=O)c2c(I)c(NC(=O)CNC(=O)c3c(I)c(C(=O)NC)c(I)c(N(C)C(C)=O)c3I)c(I)c(N(C)C(C)=O)c2I)c(I)c(C(=O)O)c1I [Compound 17, 2,4,6-triiodo-3-N-methylcarbamyl-5-[2,4,6-triiodo-3-N-methylacetamido-5-(2,4,6-triiodo-3-N-methylcarbamyl-5-N-methylacetamido-benzoyl)glycyl-aminobenzoyl]-glycyl-amino-benzoic acid]	200 mosm/kg				Peripheral vasodilatation, femoral rate of flow ([3]; in vivo): ++; Biliary clearance in cat, i.v. ([4]; in vivo, iv): 0
CNC(=O)c1c(I)c(NC(C)=O)c(I)c(C(=O)NCC(=O)N(C)c2c(I)c(C(=O)O)c(I)c(C(=O)NCCO)c2I)c1I [Compound 38, 2,4,6-triiodo-3-N-hydroxyethylcarbamyl-5-(2,4,6-triiodo-3-N-methylcarbamyl-5-acetamido-benzoyl)-glycyl-N-methylamino-benzoic acid]	635 mosm/kg				
CNC(=O)c1c(I)c(NC(=O)CNC(=O)c2c(I)c(NC(=O)CNC(=O)c3c(I)c(NC(C)=O)c(I)c(C(=O)NC)c3I)c(I)c(N(C)C(C)=O)c2I)c(I)c(C(=O)O)c1I [Compound 16, 2,4,6-triiodo-3-N-methylcarbamyl-5-[2,4,6-triiodo-3-N-methylacetamido-5-(2,4,6-triiodo-3-N-methylcarbamyl-5-acetamido-benzoyl)glycylamino-benzoyl]-glycylamino-benzoic acid]	250 mosm/kg				Peripheral vasodilatation, femoral rate of flow ([3]; in vivo): +; Biliary clearance in cat, i.v. ([4]; in vivo, iv): 0
CC(=O)Nc1c(I)c(NC(=O)CNC(=O)c2c(I)c(NC(C)=O)c(I)c(N(C)C(C)=O)c2I)c(I)c(C(=O)O)c1I [Compound 20, 2,4,6-triiodo-3-acetamido-5-(2,4,6-triiodo-3-N-methylacetamido-5-acetamido-benzoyl)-glycylaino-benzoic acid]	755 mosm/kg				Acute toxicity in mice, i.v. ([2]; 28 and 38% I, Na salt): 7.5 grams I/kg; Peripheral vasodilatation, femoral rate of flow ([3]; 1.5 ml into collateral of femoral artery, 28 and 38% I, Na salt): +
CNC(=O)c1c(I)c(NC(=O)CNC(=O)c2c(I)c(NC(=O)C(O)C(O)C(O)C(O)CO)c(I)c(C(=O)NC)c2I)c(I)c(C(=O)O)c1I (stereo not shown) [Compound 35, 2,4,6-triiodo-3-N-methylcarbamyl-5-(2,4,6-triiodo-3-N-methylcarbamyl-5-gluconylamino-benzoyl)glycylamino-benzoic acid]		8 grams I/kg	+	0	
